Active and inactive are the calls of the source. The rule behind the calls is not given here.
Legend:
Type in all cases: functional, cell-based
ASPC1 = assay: Cytotoxicity against taxol-sensitive human AsPC1 cells after 72 hrs by MTT assay; conditions: ASPC1, 72 h
DLD-1 = assay: Cytotoxicity against taxol-sensitive human DLD1 cells after 72 hrs by MTT assay; conditions: DLD-1, 72 h
PANC-1 [1] = assay: Cytotoxicity against taxol-sensitive human PANC1 cells after 72 hrs by MTT assay; conditions: PANC-1, 72 h
NCI/ADR-RES = assay: Cytotoxicity against taxol-resistant human NCI/ADR-RES cells after 72 hrs by MTT assay
PANC-1 [2] = assay: Cell cycle arrest in human PANC1 cells by accumulation in G2/M phase
PANC-1 [3] = assay: Induction of microtubule stabilization in human PANC1 cells assessed as formation of dense intracellular microtubule bundles

Row | SMILES | IC50 (ASPC1) [nM] | IC50 (DLD-1) [nM] | IC50 (PANC-1 [1]) [nM] | IC50 (NCI/ADR-RES) [nM] | Activity (PANC-1 [2]) | Activity (PANC-1 [3])
1 | C=C/C=C\[C@H](C)[C@@H]1OC(=O)/C=C\C=C\C[C@@H](O)C[C@H](O)/C=C\[C@H](C)[C@H](O)[C@@H](C)C[C@@H](C)CC[C@@H](O)[C@@H]1C | 56 | 8.1 | 17 | 43 | Active | Active
2 | C=C/C=C\[C@H](C)[C@@H]1OC(=O)CC/C=C/[C@@H](C)[C@@H](O)C[C@H](O)/C=C\[C@H](C)[C@H](O)[C@@H](C)C[C@@H](C)CC[C@@H](O)[C@@H]1C | 94 | 22 | 42 | 66 | Active | Active
3 | C=C/C=C\[C@H](C)[C@@H]1OC(=O)CCCC[C@@H](C)[C@@H](O)C[C@H](O)/C=C\[C@H](C)[C@H](O)[C@@H](C)C[C@@H](C)CC[C@@H](O)[C@@H]1C | 120 | 55 | 64 | 130 | Active | Active
4 | C=C/C=C\[C@H](C)[C@@H]1OC(=O)/C=C\C=C\[C@@H](C)[C@@H](O)C[C@H](O)/C=C\[C@H](C)[C@H](O)[C@@H](C)C[C@@H](C)CC[C@@H](O)[C@@H]1C [DICTYOSTATIN] | 6.2 | 2.2 | 4.2 | 6.6 | – | –
5 | CC(=O)O[C@H]1C(=O)[C@@]2(C)[C@H]([C@H](OC(=O)c3ccccc3)[C@]3(O)C[C@H](OC(=O)[C@H](O)[C@@H](NC(=O)c4ccccc4)c4ccccc4)C(C)=C1C3(C)C)[C@]1(OC(C)=O)CO[C@@H]1C[C@@H]2O [PACLITAXEL] | 89 | 22 | 9.9 | 1300 | – | –
6 | C=C/C=C\[C@H](C)[C@H](OC(N)=O)[C@@H](C)[C@H](O)[C@@H](C)C/C(C)=C\[C@H](C)[C@@H](O)[C@@H](C)/C=C\[C@@H](O)C[C@@H]1OC(=O)[C@H](C)[C@@H](O)[C@H]1C [DISERMOLIDE] | – | – | – | 160 | – | –
